What was measured:
Assay type in all cases: in vivo
[1] = system: pigweed (Amaranthus retroflexus); assay: Test A postemergence; conditions: postemergence
From the text: (§1) Seeds of plant species selected from barnyardgrass (Echinochloa crus-galli), Kochia (Kochia scoparia), ragweed (common ragweed, Ambrosia elatior), ryegrass, Italian (Italian ryegrass, Lolium multiflorum), crabgrass, large (Digitaria sanguinalis), giant foxtail (Setaria faberii), green foxtail (Setaria viridis), morningglory (Ipomoea spp.), pigweed (Amaranthus retroflexus), velvetleaf (Abutilon theophrasti), wheat (Triticum aestivum), and corn (Zea mays) were planted into a blend of loam soil and sand and treated preemergence with a directed soil spray using test chemicals formulated in anon-phytotoxic solvent mixture which included a surfactant.
(§2) At the same time, plants selected from these crop and weed species and also blackgrass (Alopecurus myosuroides), and Galium (catchweed bedstraw, Galium aparine) were planted in pots containing the same blend of loam soil and sand and treated with postemergence applications of test chemicals formulated in the same manner. Plants ranged in height from 2 to 10 cm and were in the one- to two-leaf stage for the postemergence treatment. Treated plants and untreated controls were maintained in a greenhouse for approximately 10 d, after which time all treated plants were compared to untreated controls and visually evaluated for injury. Plant response ratings, summarized in Table A, are based on a 0 to 100 scale where 0 is no effect and 100 is complete control. A dash (-) response means no test result.

Kochia (Kochia scoparia) [2] = assay: Test A postemergence; conditions: postemergence
From the text: as §1, §2

[3] = system: Galium (catchweed bedstraw, Galium aparine); assay: Test A postemergence; conditions: postemergence
From the text: as §1, §2

corn (Zea mays) = assay: Test A postemergence; conditions: postemergence
From the text: as §1, §2

[4] = system: ragweed (common ragweed, Ambrosia elatior); assay: Test A postemergence; conditions: postemergence
From the text: as §1, §2

[5] = system: barnyardgrass (Echinochloa crus-galli); assay: Test A postemergence; conditions: postemergence
From the text: as §1, §2

[6] = system: ryegrass, Italian (Italian ryegrass, Lolium multiflorum); assay: Test A postemergence; conditions: postemergence
From the text: as §1, §2

[7] = system: giant foxtail (Setaria faberii); assay: Test A postemergence; conditions: postemergence
From the text: as §1, §2

[8] = system: wheat (Triticum aestivum); assay: Test A postemergence; conditions: postemergence
From the text: as §1, §2

[9] = system: blackgrass (Alopecurus myosuroides); assay: Test A postemergence; conditions: postemergence
From the text: as §1, §2

[10] = system: pigweed (Amaranthus retroflexus); assay: Test A preemergence
From the text: as §1, §2

Kochia (Kochia scoparia) [11] = assay: Test A preemergence
From the text: as §1, §2

[12] = system: ragweed (common ragweed, Ambrosia elatior); assay: Test A preemergence
From the text: as §1, §2

[13] = system: barnyardgrass (Echinochloa crus-galli); assay: Test A preemergence
From the text: as §1, §2

[14] = system: ryegrass, Italian (Italian ryegrass, Lolium multiflorum); assay: Test A preemergence
From the text: as §1, §2

[15] = system: giant foxtail (Setaria faberii); assay: Test A preemergence
From the text: as §1, §2

[16] = system: ducksalad (Heteranthera limosa); assay: Test B flooded paddy test; conditions: Flood, 250 g ai/ha; 0 to 100 scale where 0 is no effect and 100 is complete control; 13 to 15 d
Description: (§3) Plant species in the flooded paddy test selected from rice (Oryra sativa), sedge, umbrella (small-flower umbrella sedge, Cyperus difformis), ducksalad (Heteranthera limosa), and barnyardgrass (Echinochloa crus-galli) were grown to the 2-leaf stage for testing. At time of treatment, test pots were flooded to 3 cm above the soil surface, treated by application of test compounds directly to the paddy water, and then maintained at that water depth for the duration of the test. Treated plants and controls were maintained in a greenhouse for 13 to 15 d, after which time all species were compared to controls and visually evaluated. Plant response ratings, summarized in Table B, are based on a scale of 0 to 100 where 0 is no effect and 100 is complete control. A dash (-) response means no test result.

rice (Oryra sativa) = assay: Test B flooded paddy test; conditions: Flood, 250 g ai/ha; 0 to 100 scale where 0 is no effect and 100 is complete control; 13 to 15 d
Description: as §3

[17] = system: barnyardgrass (Echinochloa crus-galli); assay: Test B flooded paddy test; conditions: Flood, 250 g ai/ha; 0 to 100 scale where 0 is no effect and 100 is complete control; 13 to 15 d
Description: as §3

[18] = system: sedge, umbrella (small-flower umbrella sedge, Cyperus difformis); assay: Test B flooded paddy test; conditions: Flood, 250 g ai/ha; 0 to 100 scale where 0 is no effect and 100 is complete control; 13 to 15 d
Description: as §3

[19] = 125 g ai/ha, visual rating after approx. 10 d, 0 to 100 scale (0 no effect, 100 complete control)
[20] = 500 g ai/ha, visual injury, 0 to 100 scale (0 no effect, 100 complete control), approx. 10 d
[21] = 125 g ai/ha, Preemergence, visual injury after approximately 10 d, 0 to 100 scale where 0 is no effect and 100 is complete control
[22] = 500 g ai/ha, preemergence, 0 to 100 scale, 0 = no effect, 100 = complete control
[23] = 125 g ai/ha, visual injury rating on 0 to 100 scale (0 no effect, 100 complete control), approx. 10 d
[24] = 500 g ai/ha, 0 to 100 scale, 0 no effect, 100 complete control
[25] = 125 g ai/ha, preemergence, 0 to 100 scale (0 no effect, 100 complete control)
[26] = Preemergence, 500 g ai/ha, visual injury approx. 10 d

Question: Which results are given for `O=C1NCC(c2csc(Br)c2)C1C(=O)Nc1cccc(F)c1F` (racemic) [Compound 649]?
Answer: Plant response rating, Pigweed [1, 19]: 0; Plant response rating, Pigweed [1, 20]: 30; Plant response rating, Kochia (Kochia (Kochia scoparia) [2]; [19]): 30; Plant response rating, Kochia (Kochia (Kochia scoparia) [2]; [20]): 60; Plant response rating, Galium [3, 19]: 50; Plant response rating, Galium [3, 20]: 70; Plant response rating, Corn (corn (Zea mays); [19]): 0; Plant response rating, Corn (corn (Zea mays); [20]): 0; Plant response rating, Ragweed [4, 19]: 20; Plant response rating, Ragweed [4, 20]: 60; Plant response rating, Barnyardgrass [5, 19]: 60; Plant response rating, Barnyardgrass [5, 20]: 70; Plant response rating, Ryegrass, Italian [6, 19]: 30; Plant response rating, Ryegrass, Italian [6, 20]: 40; Plant response rating, Foxtail, Giant [7, 19]: 30; Plant response rating, Foxtail, Giant [7, 20]: 60; Plant response rating, Wheat [8, 19]: 0; Plant response rating, Wheat [8, 20]: 0; Plant response rating, Blackgrass [9, 19]: 20; Plant response rating, Blackgrass [9, 20]: 60; Plant response rating, Pigweed [10, 21]: 50; Plant response rating, Pigweed [10, 22]: 60; Plant response rating, Kochia (Kochia (Kochia scoparia) [11]; [21]): 60; Plant response rating, Kochia (Kochia (Kochia scoparia) [11]; [22]): 70; Plant response rating, Ragweed [12, 21]: 20; Plant response rating, Ragweed [12, 22]: 70; Plant response rating, Barnyardgrass [13, 21]: 80; Plant response rating, Barnyardgrass [13, 22]: 90; Plant response rating, Ryegrass, Italian [14, 21]: 30; Plant response rating, Ryegrass, Italian [14, 22]: 70; Plant response rating, Foxtail, Giant [15, 21]: 50; Plant response rating, Foxtail, Giant [15, 22]: 70; Plant response rating, Ducksalad [16]: 100; Plant response rating, Rice (rice (Oryra sativa)): 0; Plant response rating, Barnyardgrass [17]: 60; Plant response rating, Sedge, Umbrella [18]: 0

Question: `CN1CC(c2ccc3c(c2)OC(F)(F)O3)C(C(=O)Nc2cccc(F)c2F)C1=O` (stereo not drawn) [Compound 442] was tested. Which “Pigweed plant response rating” value [1, 23] did it give?
Answer: 60

Question: And the “Plant response rating, Pigweed” value [1, 24]?
Answer: 70

Question: What about the “Kochia plant response rating” value (Kochia (Kochia scoparia) [2]; [23]) of the same compound?
Answer: 20

Question: What about the “Plant response rating, Kochia” value (Kochia (Kochia scoparia) [2]; [24]) of the same compound?
Answer: 60

Question: And the “Galium plant response rating” value [3, 23]?
Answer: 60

Question: And the “Plant response rating, Galium” value [3, 24]?
Answer: 60

Question: What about the “Corn plant response rating” value (corn (Zea mays); [23]) of the same compound?
Answer: 50

Question: What about the “Plant response rating, Corn” value (corn (Zea mays); [24]) of the same compound?
Answer: 70

Question: What about the “Ragweed plant response rating” value [4, 23] of the same compound?
Answer: 0

Question: What about the “Plant response rating, Ragweed” value [4, 24] of the same compound?
Answer: 40

Question: What about the “Barnyardgrass plant response rating” value [5, 23] of the same compound?
Answer: 80

Question: What about the “Plant response rating, Barnyardgrass” value [5, 24] of the same compound?
Answer: 90

Question: And the “Ryegrass, Italian plant response rating” value [6, 23]?
Answer: 60

Question: What about the “Plant response rating, Ryegrass, Italian” value [6, 24] of the same compound?
Answer: 80

Question: What about the “Foxtail, Giant plant response rating” value [7, 23] of the same compound?
Answer: 80

Question: What about the “Plant response rating, Foxtail, Giant” value [7, 24] of the same compound?
Answer: 80

Question: What about the “Wheat plant response rating” value [8, 23] of the same compound?
Answer: 40

Question: What about the “Plant response rating, Wheat” value [8, 24] of the same compound?
Answer: 70

Question: What about the “Blackgrass plant response rating” value [9, 23] of the same compound?
Answer: 60

Question: What about the “Plant response rating, Blackgrass” value [9, 24] of the same compound?
Answer: 70

Question: What about the “Plant response rating, Pigweed” value [10, 25] of the same compound?
Answer: 70

Question: What about the “Pigweed plant response rating (0 to 100 scale, 0 is no effect, 100 is complete control)” value [10, 26] of the same compound?
Answer: 80

Question: And the “Plant response rating, Kochia” value (Kochia (Kochia scoparia) [11]; [25])?
Answer: 80

Question: And the “Kochia plant response rating (0 to 100 scale, 0 is no effect, 100 is complete control)” value (Kochia (Kochia scoparia) [11]; [26])?
Answer: 90

Question: And the “Plant response rating, Ragweed” value [12, 25]?
Answer: 20

Question: What about the “Ragweed plant response rating (0 to 100 scale, 0 is no effect, 100 is complete control)” value [12, 26] of the same compound?
Answer: 60

Question: And the “Plant response rating, Barnyardgrass” value [13, 25]?
Answer: 90

Question: What about the “Barnyardgrass plant response rating (0 to 100 scale, 0 is no effect, 100 is complete control)” value [13, 26] of the same compound?
Answer: 90

Question: And the “Plant response rating, Ryegrass, Italian” value [14, 25]?
Answer: 60

Question: And the “Ryegrass, Italian plant response rating (0 to 100 scale, 0 is no effect, 100 is complete control)” value [14, 26]?
Answer: 80

Question: What about the “Plant response rating, Foxtail, Giant” value [15, 25] of the same compound?
Answer: 90

Question: What about the “Foxtail, Giant plant response rating (0 to 100 scale, 0 is no effect, 100 is complete control)” value [15, 26] of the same compound?
Answer: 90

Question: What about the “Plant response rating, Ducksalad” value [16] of the same compound?
Answer: 100

Question: And the “Plant response rating, Rice” value (rice (Oryra sativa))?
Answer: 0

Question: What about the “Plant response rating, Barnyardgrass” value [17] of the same compound?
Answer: 75

Question: What about the “Plant response rating, Sedge, Umbrella” value [18] of the same compound?
Answer: 0

Reference: patent US12077503B2, “Substituted cyclic amides and their use as herbicides” (FMC CORPORATION, priority 2015, dated 2024)
